Assay results: the NIST ThermoML archive (doi:10.1021/je900596d)
± gives the expanded uncertainty stated by the source.

Details: for mass density: 283.24 K, Fluid (supercritical or subcritical phases), Vibrating tube method; for vapor or sublimation pressure: Liquid, Closed cell (Static) method

FC(F)=C(F)C(F)(F)F [hexafluoropropene]
Details	mass density [kg/m3]	vapor or sublimation pressure [kPa]
114 kPa	7.35 ± 0.03	–
116.4 kPa	7.51 ± 0.03	–
118.8 kPa	7.66 ± 0.03	–
121.1 kPa	7.8 ± 0.03	–
123.6 kPa	8.03 ± 0.03	–
126.1 kPa	8.11 ± 0.03	–
128.5 kPa	8.33 ± 0.04	–
131 kPa	8.54 ± 0.04	–
133.4 kPa	8.66 ± 0.04	–
135.9 kPa	8.94 ± 0.04	–
140.7 kPa	9.1 ± 0.04	–
143.2 kPa	9.36 ± 0.04	–
145.7 kPa	9.54 ± 0.04	–
148.1 kPa	9.69 ± 0.04	–
150.6 kPa	9.83 ± 0.04	–
153 kPa	9.99 ± 0.04	–
155.6 kPa	10.24 ± 0.04	–
158.1 kPa	10.37 ± 0.04	–
160.5 kPa	10.54 ± 0.04	–
163 kPa	10.74 ± 0.04	–
165.1 kPa	10.87 ± 0.04	–
167.6 kPa	11.05 ± 0.04	–
170 kPa	11.2 ± 0.04	–
172.5 kPa	11.37 ± 0.04	–
176.6 kPa	11.7 ± 0.04	–
179.2 kPa	11.83 ± 0.04	–
181.6 kPa	12.01 ± 0.04	–
184.2 kPa	12.12 ± 0.04	–
186.6 kPa	12.42 ± 0.04	–
190.9 kPa	12.6 ± 0.04	–
193.4 kPa	12.77 ± 0.04	–
195.9 kPa	13.03 ± 0.04	–
198.4 kPa	13.21 ± 0.04	–
203.3 kPa	13.55 ± 0.04	–
205.8 kPa	13.69 ± 0.04	–
208.3 kPa	13.93 ± 0.04	–
210.8 kPa	14.08 ± 0.04	–
213.3 kPa	14.3 ± 0.04	–
215.8 kPa	14.4 ± 0.04	–
218.3 kPa	14.66 ± 0.04	–
220.8 kPa	14.83 ± 0.04	–
223.3 kPa	14.99 ± 0.04	–
225.7 kPa	15.16 ± 0.04	–
228.2 kPa	15.32 ± 0.04	–
230.7 kPa	15.58 ± 0.04	–
233.2 kPa	15.69 ± 0.04	–
235.7 kPa	15.79 ± 0.04	–
238.2 kPa	16.04 ± 0.04	–
240.7 kPa	16.28 ± 0.04	–
243.2 kPa	16.38 ± 0.04	–
245.6 kPa	16.6 ± 0.04	–
248.1 kPa	16.83 ± 0.04	–
250.7 kPa	17.01 ± 0.04	–
253.2 kPa	17.15 ± 0.04	–
255.6 kPa	17.39 ± 0.04	–
258.1 kPa	17.58 ± 0.04	–
260.5 kPa	17.67 ± 0.04	–
263 kPa	17.89 ± 0.04	–
265.5 kPa	18.02 ± 0.04	–
268 kPa	18.31 ± 0.04	–
270.4 kPa	18.49 ± 0.04	–
272.9 kPa	18.6 ± 0.04	–
275.4 kPa	18.8 ± 0.04	–
277.9 kPa	19.01 ± 0.04	–
280.5 kPa	19.23 ± 0.04	–
283.1 kPa	19.39 ± 0.04	–
286.3 kPa	19.61 ± 0.04	–
288.21 K	–	537.1 ± 1.4
288.7 kPa	19.79 ± 0.04	–
291.2 kPa	19.98 ± 0.04	–
293.19 K	–	625.9 ± 1.5
293.7 kPa	20.2 ± 0.04	–
296.1 kPa	20.4 ± 0.04	–
298.22 K	–	728.3 ± 1.7
298.6 kPa	20.56 ± 0.04	–
305.2 kPa	21.07 ± 0.04	–
308.4 kPa	21.36 ± 0.04	–
311.6 kPa	21.56 ± 0.04	–
314.8 kPa	21.85 ± 0.04	–
318.2 kPa	22.13 ± 0.04	–
321.5 kPa	22.28 ± 0.04	–
324.6 kPa	22.54 ± 0.04	–
327.9 kPa	22.87 ± 0.05	–
331.2 kPa	23.12 ± 0.05	–
334.4 kPa	23.37 ± 0.05	–
340.9 kPa	23.85 ± 0.05	–
344.2 kPa	24.11 ± 0.05	–
347.4 kPa	24.4 ± 0.05	–
350.6 kPa	24.64 ± 0.05	–
353.9 kPa	24.84 ± 0.05	–
357.1 kPa	25.07 ± 0.05	–
360.3 kPa	25.34 ± 0.05	–
363.5 kPa	25.56 ± 0.05	–
366.7 kPa	25.93 ± 0.05	–
370 kPa	26.15 ± 0.05	–
373.1 kPa	26.37 ± 0.05	–
376.4 kPa	26.74 ± 0.05	–
379.5 kPa	26.94 ± 0.05	–
382.8 kPa	27.24 ± 0.05	–
385.9 kPa	27.44 ± 0.05	–
389.2 kPa	27.66 ± 0.05	–
392.3 kPa	27.96 ± 0.05	–
395.5 kPa	28.23 ± 0.05	–
398.7 kPa	28.48 ± 0.05	–
401.8 kPa	28.77 ± 0.05	–
405 kPa	28.98 ± 0.05	–
408.2 kPa	29.26 ± 0.05	–
411.4 kPa	29.53 ± 0.05	–
414.6 kPa	29.77 ± 0.05	–
417.7 kPa	30.05 ± 0.05	–
420.9 kPa	30.37 ± 0.05	–
424 kPa	30.54 ± 0.05	–
427.2 kPa	30.81 ± 0.05	–
430.3 kPa	31.07 ± 0.05	–
433.5 kPa	31.39 ± 0.05	–
436.6 kPa	31.7 ± 0.06	–
439.7 kPa	31.9 ± 0.06	–
442.9 kPa	32.26 ± 0.06	–
446 kPa	32.45 ± 0.06	–
449 kPa	32.73 ± 0.06	–
452.1 kPa	32.99 ± 0.06	–
454.4 kPa	33.16 ± 0.06	–
456.7 kPa	33.3 ± 0.06	–
460.5 kPa	33.77 ± 0.06	–
462.7 kPa	33.86 ± 0.06	–
463.5 kPa	34.04 ± 0.06	–
464.2 kPa	34.05 ± 0.06	–
465 kPa	34.18 ± 0.06	–
465.7 kPa	34.33 ± 0.06	–
466.4 kPa	34.49 ± 0.06	–
467.1 kPa	34.74 ± 0.06	–
467.7 kPa	35.03 ± 0.06	–
468.3 kPa	35.5 ± 0.07	–
468.9 kPa	35.71 ± 0.07	–
